# Measurements: patent publication US11857552B2, “4-[[(7-aminopyrazolo[1,5-a]pyrimidin-5-yl)amino]methyl]piperidin-3-ol compounds as CDK inhibitors” (Carrick Therapeutics Limited, priority 2017, dated 2024)
# Tests used:
# human CDK9/cycK = human CDK9/cycK (Homo sapiens (Human), UniProt P50750); assay: CDK9 IC50 (ADP-Glo kinase assay); type: biochemical; settings: ATP 8 μM, CDKtide substrate
# Description: In addition to those mentioned above for Method 1: • Human CDK9/cycK (Promega, V4104). • CDKtide (SignalChem, C06-58).
# (§1) A reaction mixture (6 μL) containing the following components was prepared: 60 mM HEPES (60 mM, pH 7.5), sodium orthovanadate (3 μM), PEG-20000 (50 μg/mL), DTT (1.2 mM), MgCl2 (3 mM), purified human CDK9/cycK (2.5 μg/mL), CDKtide (35 μM), ATP (8 μM) and test compound at the appropriate concentration such that the final concentration of DMSO was 1% w/w. The reaction mixture was incubated at 30° C. for 60 min and then stopped by the addition of ADP-Glo Reagent (6 μL). The reaction was incubated at 25° C. for 1 h to deplete the remaining ATP. Subsequently, Kinase Detection Reagent (12 μL) was added and the reaction was allowed to proceed for 1 h at 25° C. before analysis by luminescence measurement using an Envision Plate Reader (Perkin Elmer).
# [1] = Human Plasma Protein Binding (PPB), RED device; type: in vitro ADME; settings: for Free Fraction: Improvement vs. REF-001: human plasma; for Human PPB / fraction unbound at 240 min, 5 µM: human plasma pH 7.4, 37° C., 240 min
# Description: Method 4: Human Plasma Protein Binding (PPB)
# Materials and solutions: • Human Plasma (Sera Labs, […]). • Bupropion hydrochloride (Sigma, B102). • DPBS (Sigma, D8537). • Formic Acid (Sigma, F0507). • RED Device Single Use (Life Technologies, 90006). • Internal standard solution preparation: A solution of bupropion hydrochloride (50 μL, 10 mM in DMSO) was combined with 0.1% formic acid (1 mL) in acetonitrile (1000 mL).
# Once frozen plasma was defrosted and adjusted to pH 7.4 using 1 M lactic acid solution and a portion of this mixture (792 μL) combined with each test compound solution (8 μL, 0.5 mM in DMSO). Portions of the resultant spiked plasma (200 μL) were added to sample compartments of the RED device. DBPS (350 μL) was added to each corresponding buffer compartment. An initial sample (50 μL) was taken and then the RED plate was sealed and incubated at 37° C. for 240 min on an orbital shaker (200 rpm) in a humidified CO2 (5%) atmosphere, alongside plasma and DBPS samples. Each sample well was treated with internal standard solution (300 μL). Aliquots (50 μL) were removed from each buffer well and sample well and replaced with incubated plasma (50 μL) or incubated DPBS (50 μL) respectively. The plate was sealed and centrifuged (3500 rpm, 15 min). Aliquots of the supernatant (100 μL) were combined with water (50 μL) for analysis using a Waters TQS Mass Spectrometer.
# MDR1 = MDR1 (Homo sapiens (Human), UniProt P08183); assay: MDCK-MDR1 Efflux Ratio; type: in vitro ADME; settings: dog, MDCK-MDR1, pH 7.4, HBSS pH 7.4, 37° C.
# Chain of MDR1 (P08183 whole entry): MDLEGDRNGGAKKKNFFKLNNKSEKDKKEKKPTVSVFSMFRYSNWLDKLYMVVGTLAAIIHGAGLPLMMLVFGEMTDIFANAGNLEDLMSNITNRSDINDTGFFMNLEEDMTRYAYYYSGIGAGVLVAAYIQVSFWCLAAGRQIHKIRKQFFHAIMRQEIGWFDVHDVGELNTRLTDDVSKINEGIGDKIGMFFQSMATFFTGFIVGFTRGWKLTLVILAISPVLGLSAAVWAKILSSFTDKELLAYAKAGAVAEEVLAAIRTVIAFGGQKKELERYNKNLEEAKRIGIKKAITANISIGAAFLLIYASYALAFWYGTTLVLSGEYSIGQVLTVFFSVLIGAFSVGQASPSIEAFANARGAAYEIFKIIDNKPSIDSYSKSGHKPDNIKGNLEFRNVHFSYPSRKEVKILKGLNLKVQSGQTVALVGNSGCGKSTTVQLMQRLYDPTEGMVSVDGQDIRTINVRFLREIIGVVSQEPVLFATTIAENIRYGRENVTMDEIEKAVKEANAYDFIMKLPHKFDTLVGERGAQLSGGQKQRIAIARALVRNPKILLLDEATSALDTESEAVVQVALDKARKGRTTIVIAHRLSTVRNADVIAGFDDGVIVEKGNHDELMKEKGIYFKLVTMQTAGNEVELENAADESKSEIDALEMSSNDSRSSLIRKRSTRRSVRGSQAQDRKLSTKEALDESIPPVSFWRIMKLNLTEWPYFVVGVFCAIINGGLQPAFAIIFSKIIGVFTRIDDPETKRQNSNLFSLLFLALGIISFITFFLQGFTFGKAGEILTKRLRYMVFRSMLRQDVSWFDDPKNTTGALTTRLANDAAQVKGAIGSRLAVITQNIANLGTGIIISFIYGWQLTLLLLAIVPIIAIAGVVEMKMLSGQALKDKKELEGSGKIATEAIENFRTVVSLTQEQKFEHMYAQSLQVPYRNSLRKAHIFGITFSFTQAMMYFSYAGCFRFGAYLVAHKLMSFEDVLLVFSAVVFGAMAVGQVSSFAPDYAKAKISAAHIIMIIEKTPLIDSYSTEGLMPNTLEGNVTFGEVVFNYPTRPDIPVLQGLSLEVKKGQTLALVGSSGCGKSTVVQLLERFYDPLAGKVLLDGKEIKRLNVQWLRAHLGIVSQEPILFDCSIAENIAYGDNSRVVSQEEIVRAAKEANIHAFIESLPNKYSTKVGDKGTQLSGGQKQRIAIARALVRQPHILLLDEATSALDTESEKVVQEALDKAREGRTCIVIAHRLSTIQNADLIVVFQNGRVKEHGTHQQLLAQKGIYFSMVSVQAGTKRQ
# Description: Method 5: MDCK-MDR1 Efflux Ratio
# Materials and solutions: • MDCK/MDR1 Ready™ cell plate (Readycell). • High Glucose Cell Culture Medium (Sigma, D5671) supplemented with: 10% FBS, 1% Glutamine 200 mM, 1% Penicillin (10,000 U/mL)—Streptomycin (10 mg/mL). • HBSS Buffer (Gibco, 14065-049). • Internal standard: 0.5 μM Bupropion in acetonitrile/0.1% formic acid (aq) (1:1 v/v).
# HBSS assay buffer was prepared at pH 7.4 and warmed to 37° C. The cell culture media was removed from the Readycell plate. The Basal cells were washed with HBSS buffer (3×225 μL) and the Apical cells were washed with HBSS buffer (3×75 μL). The cells were warmed to 37° C. in a humidified CO2 (5%) atmosphere and shaken at 250 rpm for 30 min. Compound and standard solutions were prepared by diluting each compound (10 μL, 1 mM in DMSO) with HBSS (990 μL). The buffer was carefully removed from the Basal cell plate, followed by the Apical cell plate. HBSS buffer (225 μL) and compound solution (250 μL) were added to the Basal cell plate. An aliquot (25 μL) of the solutions were combined with internal standard (75 μL) and refrigerated for use as the t=0 h sample. HBSS buffer (75 μL) and compound solution (100 μL) were added to the Apical cell plate. An aliquot (25 μL) was taken and processed in the same manner as for the Basal cell plate. […]
# human CDK2/cycE1 = human CDK2/cycE1 (Homo sapiens (Human), UniProt P24941); assay: CDK2 IC50 (ADP-Glo kinase assay); type: biochemical; settings: ATP 20 μM, histone H1 substrate
# Description: as §1, with “human CDK2/cycE1 (4” for “human CDK9/cycK (2.5”, “μg/mL), histone H1 (50 μg/mL),” for “μg/mL), CDKtide (35 μM),”, “ATP (20” for “ATP (8”, “for 75” for “for 60”
# BCRP = BCRP (Homo sapiens (Human), UniProt Q9UNQ0); assay: MDCK-BCRP Efflux Ratio; type: in vitro ADME; settings: dog, pH 7.4, HBSS pH 7.4, 37° C.
# Chain of BCRP (Q9UNQ0 whole entry): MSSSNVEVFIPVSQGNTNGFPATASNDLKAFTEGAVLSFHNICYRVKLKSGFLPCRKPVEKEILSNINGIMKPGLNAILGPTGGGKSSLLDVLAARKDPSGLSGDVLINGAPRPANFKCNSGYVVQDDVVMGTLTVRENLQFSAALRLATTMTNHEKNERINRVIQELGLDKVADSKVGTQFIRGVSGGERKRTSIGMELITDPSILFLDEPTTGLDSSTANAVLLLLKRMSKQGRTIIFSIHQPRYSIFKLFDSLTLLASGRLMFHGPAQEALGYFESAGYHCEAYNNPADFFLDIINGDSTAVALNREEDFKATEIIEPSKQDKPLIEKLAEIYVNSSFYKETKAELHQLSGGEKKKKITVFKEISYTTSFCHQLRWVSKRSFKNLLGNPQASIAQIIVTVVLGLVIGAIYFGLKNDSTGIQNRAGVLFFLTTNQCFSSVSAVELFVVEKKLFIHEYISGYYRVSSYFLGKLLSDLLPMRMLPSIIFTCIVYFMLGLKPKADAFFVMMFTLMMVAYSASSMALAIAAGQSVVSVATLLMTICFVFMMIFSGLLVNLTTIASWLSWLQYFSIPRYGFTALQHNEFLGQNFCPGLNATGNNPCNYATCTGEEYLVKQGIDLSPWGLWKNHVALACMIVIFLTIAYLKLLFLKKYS
# From the text: Method 6: MDCK-BCRP Efflux Ratio
# Essentially the same as Method 5, but using MDCK/BCRP Ready™ cell plates (Readycell) in place of MDCK/MDR1 plates.
# human CDK7/cycH/MAT1 = human CDK7/cycH/MAT1 (Homo sapiens (Human), UniProt P50613); assay: CDK7 IC50 (ADP-Glo kinase assay); type: biochemical; settings: for IC50: ATP 8 μM, CDKtide substrate; for Ratio CDK2/CDK7: CDK2 IC50 / CDK7 IC50 selectivity; for CDK2/CDK7 Selectivity: Improvement vs. REF-001: ratio of CDK2/CDK7 ratios; for CDK7 Potency: Improvement vs. REF-001: ratio of CDK7 IC50 of REF-001 to compound
# Chain of human CDK7/cycH/MAT1 (P50613 whole entry): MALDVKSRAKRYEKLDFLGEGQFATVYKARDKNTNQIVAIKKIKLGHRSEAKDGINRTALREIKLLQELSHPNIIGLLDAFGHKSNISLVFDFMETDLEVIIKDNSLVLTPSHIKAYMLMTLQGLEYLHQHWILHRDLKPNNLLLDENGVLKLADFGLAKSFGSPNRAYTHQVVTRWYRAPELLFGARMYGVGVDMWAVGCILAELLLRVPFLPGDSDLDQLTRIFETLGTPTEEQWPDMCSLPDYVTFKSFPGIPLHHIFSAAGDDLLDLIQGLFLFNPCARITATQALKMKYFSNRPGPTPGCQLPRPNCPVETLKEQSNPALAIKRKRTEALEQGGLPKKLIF
# Chain of human CDK7/cycH/MAT1 (P51946 whole entry partner): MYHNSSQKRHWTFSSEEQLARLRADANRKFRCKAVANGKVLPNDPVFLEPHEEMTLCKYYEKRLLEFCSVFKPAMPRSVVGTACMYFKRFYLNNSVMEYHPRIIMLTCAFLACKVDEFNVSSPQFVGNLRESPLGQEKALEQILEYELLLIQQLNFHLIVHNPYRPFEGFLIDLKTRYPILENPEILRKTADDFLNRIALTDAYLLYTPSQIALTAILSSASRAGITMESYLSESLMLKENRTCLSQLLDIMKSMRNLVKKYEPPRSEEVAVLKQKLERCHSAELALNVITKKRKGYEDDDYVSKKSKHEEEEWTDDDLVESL
# Chain of human CDK7/cycH/MAT1 (P51948 whole entry partner): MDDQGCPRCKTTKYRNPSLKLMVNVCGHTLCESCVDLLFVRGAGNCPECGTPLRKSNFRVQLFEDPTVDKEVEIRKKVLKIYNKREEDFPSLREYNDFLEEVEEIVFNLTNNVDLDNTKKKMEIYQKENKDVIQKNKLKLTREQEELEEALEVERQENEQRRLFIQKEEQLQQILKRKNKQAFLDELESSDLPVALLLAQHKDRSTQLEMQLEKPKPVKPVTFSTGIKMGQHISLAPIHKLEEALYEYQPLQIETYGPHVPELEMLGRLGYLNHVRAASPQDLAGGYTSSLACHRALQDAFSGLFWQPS
# Description: A reaction mixture (6 μL) containing the following components was prepared: 60 mM HEPES (60 mM, pH 7.5), sodium orthovanadate (3 μM), PEG-20000 (50 μg/mL), DTT (1.2 mM), MgCl2 (3 mM), MnCl2 (3 mM), purified human CDK7/cycH/MAT1 (4 μg/mL), CDKtide (10 μM), ATP (8 μM) and test compound at the appropriate concentration such that the final concentration of DMSO was 1% w/w. The reaction mixture was incubated at 30° C. for 30 min and then stopped by the addition of ADP-Glo Reagent (6 μL). The reaction was incubated at 25° C. for 1 h to deplete the remaining ATP. Subsequently, Kinase Detection Reagent (12 μL) was added and the reaction was allowed to proceed for 1 h at 25° C. before analysis by luminescence measurement using an Envision Plate Reader (Perkin Elmer).
# [2] = system: MCF-7 breast cancer cell line; settings: with 4-hydroxytamoxifen or Faslodex, ERα-positive MCF-7 cells; cited from earlier work
# Chain of human CDK9/cycK (P50750 whole entry): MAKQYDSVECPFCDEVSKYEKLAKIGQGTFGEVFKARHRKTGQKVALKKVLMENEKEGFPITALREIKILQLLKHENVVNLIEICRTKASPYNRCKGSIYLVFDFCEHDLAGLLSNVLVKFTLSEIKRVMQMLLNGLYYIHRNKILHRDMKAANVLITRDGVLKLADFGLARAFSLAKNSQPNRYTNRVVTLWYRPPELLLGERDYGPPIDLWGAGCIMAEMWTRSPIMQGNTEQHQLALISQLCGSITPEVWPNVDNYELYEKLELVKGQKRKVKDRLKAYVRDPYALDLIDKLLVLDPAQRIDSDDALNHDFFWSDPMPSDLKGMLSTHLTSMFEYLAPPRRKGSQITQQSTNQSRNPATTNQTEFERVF
# Chain of human CDK9/cycK (O75909 whole entry partner): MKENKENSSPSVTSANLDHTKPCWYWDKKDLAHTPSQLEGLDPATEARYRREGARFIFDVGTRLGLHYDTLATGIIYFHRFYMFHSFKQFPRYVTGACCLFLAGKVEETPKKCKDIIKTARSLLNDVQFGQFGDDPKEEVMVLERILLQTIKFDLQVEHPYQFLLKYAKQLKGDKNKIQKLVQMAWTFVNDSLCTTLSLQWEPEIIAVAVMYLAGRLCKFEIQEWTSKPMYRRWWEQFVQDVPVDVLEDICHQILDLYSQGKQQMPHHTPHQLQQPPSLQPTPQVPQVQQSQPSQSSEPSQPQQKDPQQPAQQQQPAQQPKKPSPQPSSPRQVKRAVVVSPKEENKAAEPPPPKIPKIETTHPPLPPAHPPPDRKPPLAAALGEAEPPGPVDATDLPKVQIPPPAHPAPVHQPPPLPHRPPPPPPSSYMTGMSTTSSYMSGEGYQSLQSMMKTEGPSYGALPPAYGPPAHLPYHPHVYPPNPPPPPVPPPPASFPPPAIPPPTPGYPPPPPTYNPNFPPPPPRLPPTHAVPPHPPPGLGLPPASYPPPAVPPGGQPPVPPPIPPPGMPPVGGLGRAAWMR
IC50 (human CDK9/cycK) [nM],Free Fraction: Improvement vs. REF-001 [1] [fold],Human PPB [1] [%],"fraction unbound at 240 min, 5 µM [1]","efflux ratio at 2 h, 10 µM (MDR1)",IC50 (human CDK2/cycE1) [nM],"efflux ratio at 2 h, 10 µM (BCRP)",IC50 (human CDK7/cycH/MAT1) [nM],Ratio CDK2/CDK7 (human CDK7/cycH/MAT1),CDK2/CDK7 Selectivity: Improvement vs. REF-001 (human CDK7/cycH/MAT1) [fold],CDK7 Potency: Improvement vs. REF-001 (human CDK7/cycH/MAT1) [fold],Structure (SMILES),effect of the combination with an anti-estrogen on growth of breast cancer cells [2]
200,2.14,85,0.15,2,640,5,13,49,2.54,2.62,"CCc1cnn2c(NCc3ccccc3F)cc(NC[C@H]3CCNC[C@@H]3O)nc12 [APPAMP-001, (3R,4R)-4-(((3-ethyl-7-((2-fluorobenzyl)amino)pyrazolo[1,5-a]pyrimidin-5-yl)amino)methyl)piperidin-3-ol]",–
210,2.43,83,0.17,5.7,770,2,33,23,1.20,1.03,"O[C@H]1CNCC[C@@H]1CNc1cc(NCc2ccccc2)n2ncc(C3CC3)c2n1 [APPAMP-002, (3R,4R)-4-(((7-(benzylamino)-3-cyclopropylpyrazolo[1,5-a]pyrimidin-5-yl)amino)methyl)piperidin-3-ol]",–
22,–,–,–,–,190,–,8.9,21,1.10,3.82,"CCc1cnn2c(NCc3cccc(C#N)c3)cc(NC[C@H]3CCNC[C@@H]3O)nc12 [APPAMP-003, 3-(((3-ethyl-5-((((3R,4R)-3-hydroxypiperidin-4-yl)methyl)amino)pyrazolo[1,5-a]pyrimidin-7-yl)amino)methyl)benzonitrile]",–
130,–,–,–,–,2400,–,4.2,571,29.4,8.10,"CCc1cnn2c(NCc3cccc(C#N)c3)c(Cl)c(NC[C@H]3CCNC[C@@H]3O)nc12 [APPAMP-004, 3-(((6-chloro-3-ethyl-5-((((3R,4R)-3-hydroxypiperidin-4-yl)methyl)amino)pyrazolo[1,5-a]pyrimidin-7-yl)amino)methyl)benzonitrile]",–
–,–,93,0.07,–,–,–,–,–,–,–,"CC(C)c1cnn2c(NCc3ccccc3)cc(NC[C@H]3CCNC[C@@H]3O)nc12 [REF-001, (3R,4R)-4-(((7-(benzylamino)-3-isopropylpyrazolo[1,5-a]pyrimidin-5-yl)amino)methyl)piperidin-3-ol, reference compound]",synergistic effects
